Consider three compounds from patent US20040138231A1, “Pharmaceutical composition which comprise a solid dispersion of a hydroxypropyl-methylcellulose phthalate polymer” (priority 2001, published 2004).

Values after ≈ are worked out from the molar mass of the structure shown. Read-outs that look alike come from different tables or passages of the source.

The conditions of data set [1]: comparison compound of Kai T. et al., cited from earlier work.
The target of a further data set is Factor Xa (Homo sapiens, UniProt P00742). Briefly: Factor Xa inhibitory activity versus thrombin. It is filed as biochemical. The settings on record: at concentrations which do not inhibit, or inhibit to a lesser extent.
Data set [2] in a line: Solubility data for Compound 1 and the Antifungal. In kind it is physicochemical.
A short description of data set [3]: Solubility Data for Compound 2. In kind it is physicochemical.

Factor Xa, sequence (P00742 235-488 limits assumed): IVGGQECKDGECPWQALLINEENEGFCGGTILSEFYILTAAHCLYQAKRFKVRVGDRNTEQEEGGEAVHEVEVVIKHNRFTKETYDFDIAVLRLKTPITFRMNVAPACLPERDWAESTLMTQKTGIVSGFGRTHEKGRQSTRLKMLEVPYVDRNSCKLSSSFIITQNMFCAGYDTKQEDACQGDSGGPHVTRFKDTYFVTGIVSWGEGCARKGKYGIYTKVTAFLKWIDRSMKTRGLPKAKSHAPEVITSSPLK
Factor Xa, sequence (P00742 41-179 partner limits assumed): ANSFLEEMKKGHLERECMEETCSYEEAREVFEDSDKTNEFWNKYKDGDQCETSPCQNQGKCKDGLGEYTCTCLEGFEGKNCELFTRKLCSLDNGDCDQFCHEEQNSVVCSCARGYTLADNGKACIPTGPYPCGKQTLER

For the compound `CC(C)(Sc1ccc(-n2cncn2)nn1)C(O)(Cn1cncn1)c1ccc(F)cc1F` (single isomer, unassigned; (+)) [Antifungal, (+)-2-(2,4-difluorophenyl)-3-methyl-1-(1H-1,2,4-triazol-1-yl)-3-[6-(1H-1,2,4-triazol-1-yl)pyridazin-3-ylthio]butan-2-ol], the solubility in data set [1] (Water) is 1.2 µg/mL (≈ 2.7 µM); in data set [1] (pH1.2), 3.6 µg/mL (≈ 8.1 µM); in data set [1] (pH6.8), 1.2 µg/mL (≈ 2.7 µM).
Turning to `O=C(c1ccc(-c2ccncc2)cc1)N1CCN(S(=O)(=O)c2ccc3cc(Cl)ccc3c2)CC1` [Compound 1, 1-(6-chloronaphth-2-ylsulfonyl)-4-[4-(4-pyridyl)benzoyl]piperazine], at Factor Xa, the “Factor Xa inhibitory activity relative to thrombin inhibition” value was “possesses Factor Xa inhibitory activity at concentrations which do not inhibit, or which inhibit to a lesser extent, the enzyme thrombin”. Also, the “solubility in the duodenum, ileum and colon” value in data set [2] (main sites of adsorption) is “low solubility”. The “solubility at the acidic pH of the stomach” value in data set [2] (stomach pH) is “soluble within the acidic pH of the stomach”. Also, the solubility in data set [2] (water) is less than 5 µg/mL.
As to `O=C(c1ccc(-c2ccncc2)cc1)N1CCN(S(=O)(=O)c2cc3cc(Cl)ccc3[nH]2)CC1` [Compound 2, 1-(5-chloroindol-2-ylsulfonyl)-4-[4-(4-pyridyl)benzoyl]piperazine], the solubility is 585 µg/mL (≈ 1220 µM) in data set [3] (0.1M hydrochloric acid, pH 1.4, simulated gastric fluid); 227 µg/mL (≈ 472 µM) in data set [3] (0.9% saline, pH 2.5, saline or isotonic); 193 µg/mL (≈ 401 µM) in data set [3] (aqueous buffer, pH 3 citrate buffer, pH 2.9); 3 µg/mL (≈ 6.24 µM) in data set [3] (aqueous buffer, pH 5 citrate buffer, pH 5.0); less than 2 µg/mL in data set [3] (aqueous buffer, pH 7 phosphate buffer, pH 7.1); 301 µg/mL (≈ 626 µM) in data set [3] (water, pH 2.6, water). Moreover, the “Stability of sample in solubility test” value in data set [3] (0.1M sodium hydroxide, pH 12.7) was “NR* = no result, sample shows evidence of degradation”.

One may read the solubility as how much of the substance goes into solution per volume.
